Results as given in ChEMBL document CHEMBL3832553, “DailyMed|setid=be8e0025-5726-4965-9510-e7e657687d23 | AVELOX - moxifloxacin hydrochloride tablet, coated|Lake Erie Medical Supply DBA Quality Care Products LLC”.
Values joined by “and” are separate entries in the source; they are usually repeats but may differ in a detail not shown here. Identical values can stand only once.

What was measured:
Assay type in all cases: ADME, organism-based
[1] = (§1) Pharmacokinetic parameters for Moxifloxacin hydrochloride following single oral or intravenous administration of 400 mg Moxifloxacin to healthy or patient male and/or female; design: dose 400 mg, route iv, route oral; settings: human, in vivo, 400 mg, dosed compound id 1, dosed compound name MOXIFLOXACIN, regimen Single dose, tissue Plasma
Homo sapiens [2] = assay: as §1; design: dose 400 mg, route iv, route oral; settings: in vivo, dosed compound id 1, dosed compound name MOXIFLOXACIN, regimen Single dose, study dosing duration 1 hr, tissue Plasma; for Cmax: po
[3] = Pharmacokinetic parameters for Moxifloxacin hydrochloride following oral administration of Moxifloxacin.; settings: human, in vivo, dosed compound id 1, dosed compound name MOXIFLOXACIN, tissue Plasma
[4] = (§2) Pharmacokinetic parameters for Moxifloxacin hydrochloride following multiple oral administration of 400 mg Moxifloxacin to male Japanese or Caucasian healthy or patient male and/or female; design: dose 400 mg, route iv, route oral; settings: human, in vivo, 400 mg, dosed compound id 1, dosed compound name MOXIFLOXACIN, regimen Multiple dose, tissue Plasma
Homo sapiens [5] = assay: as §2; design: dose 400 mg, route iv, route oral; settings: in vivo, dosed compound id 1, dosed compound name MOXIFLOXACIN, regimen Multiple dose, tissue Plasma

COc1c(N2C[C@@H]3CCCN[C@@H]3C2)c(F)cc2c(=O)c(C(=O)O)cn(C3CC3)c12.Cl [MOXIFLOXACIN HYDROCHLORIDE]
AUC [1]: 36100 ng·h/mL
Cmax ([1]; po): 3100 ng/mL
AUC (Homo sapiens [2]; gender young male and female): 39300 ng·h/mL
Cmax (Homo sapiens [2]; gender female): 4500 ng/mL
Cmax (Homo sapiens [2]; gender male and female): 4300 ng/mL
Cmax (Homo sapiens [2]; gender male): 4400 ng/mL
Cmax (Homo sapiens [2]; gender young male and female): 3900 ng/mL
bioavailability [3]: 90%
AUC ([4]; gender young male and female, read-out: AUC): 48000 ng·h/mL
Cmax ([4]; gender young male and female, read-out: Cmax): 4500 ng/mL
AUC ([4]; read-out: AUC(0-24)): 47000 ng·h/mL
Cmax ([4]; read-out: Cmax ss): 4100 ng/mL
Cmax (Homo sapiens [5]; gender elderly male amd female, study dosing duration 1 hr): 6100 ng/mL
AUC (Homo sapiens [5]; gender elderly male): 51800 ng·h/mL
Cmax (Homo sapiens [5]; gender elderly male): 3800 ng/mL
Cmax (Homo sapiens [5]; gender female, study dosing duration 1 hr): 4600 ng/mL
Cmax (Homo sapiens [5]; gender male and female, study dosing duration 1 hr): 4100 ng/mL and 4700 ng/mL
AUC (Homo sapiens [5]; gender young female): 49300 ng·h/mL
Cmax (Homo sapiens [5]; gender young female): 4200 ng/mL
AUC (Homo sapiens [5]; gender young male, study dosing duration 1 hr): 38000 ng·h/mL
AUC (Homo sapiens [5]; gender young male): 48200 ng·h/mL
Cmax (Homo sapiens [5]; gender young male): 3600 ng/mL
AUC(0-24) (Homo sapiens [5]): 47000 ng·h/mL
